Read-outs that look alike come from different tables or passages of the source. One block for each compound: values may come before it.
Key:
mouse pancreatic islets = assay: Islet cell insulin secretion assay (glucose-stimulated insulin secretion, insulin content); assay type: cell-based
Experimental: A critical physiological role of GLP-1 is to augment glucose-stimulated insulin secretion (GSIS) from pancreatic islet β cells. α/β-Peptide SEQ. ID. […] The results are depicted in FIG. 2.
ID. NO: 7. Approximately 100 medium sized islets were washed three times, placed in a sterile Petri dish, and incubated overnight in culture medium (RPMI 1640, with 11.1 mM glucose, antibiotics and 10% heat-inactivated fetal bovine serum). The following day, 50 islets were washed and transferred in […] of Krebs Ringer Buffer (KRB) to a Swinnex®-brand filter holder (EMD Millipore, Billerica, Mass.). The islets were sandwiched between two layers of Bio-Gel P-2 bead (Bio-Rad, Hercules, Calif.) solution (200 mg beads/mL in KRB; bottom layer, […] and top layer, […]). The Swinnex filter holder was attached in-line with a Minipuls®-brand pump (Gilson, Middleton, Wis.) and a FC 204 Fraction Collector (Gilson). Islets were perifused at the rate of 1 mL/min, and samples were collected at 30 sec intervals. Insulin content of the islets themselves and insulin secretion were determined by ELISA. […] ID. NO: 7.

human GLP-1 receptor = human GLP-1 receptor (Homo sapiens, UniProt P43220); assay: GLP-1R activation monitored by cAMP production in HEK293 cells
Chain of human GLP-1 receptor (P43220 24-463): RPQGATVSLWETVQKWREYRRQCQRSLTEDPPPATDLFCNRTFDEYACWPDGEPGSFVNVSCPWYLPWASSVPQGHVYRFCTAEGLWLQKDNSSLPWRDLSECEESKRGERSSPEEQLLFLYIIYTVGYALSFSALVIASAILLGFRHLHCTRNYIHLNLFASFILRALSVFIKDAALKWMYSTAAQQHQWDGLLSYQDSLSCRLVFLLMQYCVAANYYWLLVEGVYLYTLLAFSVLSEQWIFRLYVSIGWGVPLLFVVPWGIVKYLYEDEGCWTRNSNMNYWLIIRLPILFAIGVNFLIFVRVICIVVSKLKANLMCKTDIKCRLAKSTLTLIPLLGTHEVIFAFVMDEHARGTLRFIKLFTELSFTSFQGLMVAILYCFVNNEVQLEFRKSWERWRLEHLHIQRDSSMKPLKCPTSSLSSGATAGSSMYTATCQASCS

neprilysin = target: T1, neprilysin (Homo sapiens, UniProt P08473); assay: Protease assay with neprilysin (HPLC); assay type: in vitro ADME; conditions: 40 μg/mL neprilysin
T1 construct: purchased Reprokine; Ltd. RKP08473
T1 sequence (P08473 whole entry): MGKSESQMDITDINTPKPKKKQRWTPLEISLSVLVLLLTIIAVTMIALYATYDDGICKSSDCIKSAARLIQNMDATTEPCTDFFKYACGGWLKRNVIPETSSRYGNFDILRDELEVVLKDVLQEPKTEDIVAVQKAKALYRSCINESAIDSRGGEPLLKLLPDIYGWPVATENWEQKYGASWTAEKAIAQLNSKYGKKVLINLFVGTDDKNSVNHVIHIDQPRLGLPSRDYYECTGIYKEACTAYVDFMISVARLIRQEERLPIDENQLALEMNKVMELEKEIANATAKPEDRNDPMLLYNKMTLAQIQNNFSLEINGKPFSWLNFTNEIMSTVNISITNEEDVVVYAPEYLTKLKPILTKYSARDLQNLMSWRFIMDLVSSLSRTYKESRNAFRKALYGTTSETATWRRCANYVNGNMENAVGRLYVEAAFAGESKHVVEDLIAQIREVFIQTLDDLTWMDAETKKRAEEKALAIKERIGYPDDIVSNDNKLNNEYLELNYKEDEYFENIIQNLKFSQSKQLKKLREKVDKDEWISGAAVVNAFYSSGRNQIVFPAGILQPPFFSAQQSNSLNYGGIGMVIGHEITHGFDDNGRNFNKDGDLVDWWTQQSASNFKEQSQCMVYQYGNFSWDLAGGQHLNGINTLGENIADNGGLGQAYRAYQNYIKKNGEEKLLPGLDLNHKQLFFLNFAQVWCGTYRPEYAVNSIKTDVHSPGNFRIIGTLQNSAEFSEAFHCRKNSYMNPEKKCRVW

DPP-4 = target: T2, DPP-4 (Homo sapiens, UniProt P27487); assay: Protease assay with DPP-4 (HPLC); assay type: in vitro ADME; conditions: TBS pH 8.0, 37° C., monitored seven days
T2 construct: purchased EMD Biosciences 317640
T2 sequence (P27487 whole entry): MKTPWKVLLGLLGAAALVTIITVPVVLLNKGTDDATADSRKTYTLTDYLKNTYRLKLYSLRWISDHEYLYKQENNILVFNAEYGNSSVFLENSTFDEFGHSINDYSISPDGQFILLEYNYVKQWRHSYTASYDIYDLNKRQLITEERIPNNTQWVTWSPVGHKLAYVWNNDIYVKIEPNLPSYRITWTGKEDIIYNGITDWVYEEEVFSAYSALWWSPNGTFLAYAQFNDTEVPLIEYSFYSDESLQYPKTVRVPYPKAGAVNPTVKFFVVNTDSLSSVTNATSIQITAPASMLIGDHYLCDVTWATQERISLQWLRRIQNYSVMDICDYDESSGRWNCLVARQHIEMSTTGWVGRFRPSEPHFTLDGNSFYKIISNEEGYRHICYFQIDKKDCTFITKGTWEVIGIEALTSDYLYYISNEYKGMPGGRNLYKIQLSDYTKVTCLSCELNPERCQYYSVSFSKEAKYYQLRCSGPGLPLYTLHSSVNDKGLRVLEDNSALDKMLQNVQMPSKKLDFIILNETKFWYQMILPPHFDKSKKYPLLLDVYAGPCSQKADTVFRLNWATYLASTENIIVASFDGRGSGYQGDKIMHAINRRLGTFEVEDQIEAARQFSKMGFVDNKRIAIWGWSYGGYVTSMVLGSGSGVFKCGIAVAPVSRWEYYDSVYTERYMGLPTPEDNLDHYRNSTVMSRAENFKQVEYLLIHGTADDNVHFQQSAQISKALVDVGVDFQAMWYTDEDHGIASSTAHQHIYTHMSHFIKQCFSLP

chymotrypsin [1] = target: T3, chymotrypsin (Bos taurus, UniProt P00766); assay: Protease assay with chymotrypsin (HPLC); assay type: in vitro ADME; conditions: 40 μM peptide, 50 μg/mL chymotrypsin, TBS pH 8.0, room temperature, read-out: t1/2 with chymotrypsin (converted)
T3 construct: purchased Promega V1062
Experimental: (§1) An HPLC method from the literature was used to assess protease action on selected compounds.^29,31 Two nmol of solid peptide was dissolved in 40 μL of TBS pH 8.0 (resulting concentration of peptide=40 μM) before protease was added. Chymotrypsin was purchased from Promega (Fitchburg, Wis.; catalog #V1062), and neprilysin was purchased from Reprokine. Ltd. (Valley Cottage, N.Y.; catalog #RKP08473); stock solutions of 250 μg/mL chymotrypsin and 200 μg/mL neprilysin in water were prepared. A 10 μL aliquot of protease stock solution was added to 40 μL of 40 μM peptide solution to begin the reaction. Periodically, a 10 μL aliquot of the solution was removed, and protease action was halted by adding this aliquot to 100 μL of 1% aqueous TFA solution. A portion (100 μL) of the quenched solution was injected onto an HPLC column using the conditions described under “Peptide Synthesis”, and peaks were analyzed using MALDI-TOF MS. The time course of peptide degradation was experimentally determined by integrating the area of each peak in a series of HPLC traces. The area percent of parent peptide (relative to the initial trace) was calculated for each trace and plotted in GraphPad Prism as an exponential decay to determine half-life values.
(§2) ID. […] Major backbone cut sites are indicated with double front slashes. […] Digestion occurs at three major cleavage sites. […] ID. NO: 7 with 50 μg/mL chymotrypsin in TBS pH 8.0 at room temperature. […] ID. NO: 9 with 50 μg/mL chymotrypsin in TBS pH 8.0 at room temperature. This peptide has seven substitutions, α→Aib.

chymotrypsin [2] = test system: T4, chymotrypsin; assay: Protease assay with chymotrypsin (HPLC); assay type: in vitro ADME; conditions: chymotrypsin (50 μg/mL) in TBS; 50 μg/mL chymotrypsin, TBS pH 8.0, room temperature, 1500 seconds; read-out: peptide remaining after 1500 seconds
T4 construct: purchased Promega V1062
Experimental: as §1, §2

C57BL/6J mice = assay: Glucose tolerance test (GTT) in mice; assay type: in vivo, mouse
Experimental: ID. NO: 7 was administered to mice by interperitoneal (i.p.) injection at a 1 mg/kg dose, or lower for SEQ. ID. NO: 7, using an injection volume of 10 mL/kg body mass. Each peptide was first dissolved in prefiltered DMSO at 10 mg/mL concentration, then diluted >20-fold with TBS buffer, pH 7.4 (final DMSO conc.=<5%). Glucose was administered by i.p. injection with a sterile-filtered 30% D-glucose-saline solution at a 1.5 g/kg dose using a 5 mL/kg injection volume.
Thirteen-week-old male C57BL/6J mice (The Jackson Laboratory) (n=4) were fasted overnight on wood chip bedding for 15 hours prior to the experiment. Blood glucose levels were monitored from a tail tip bleed using an ACCU-CHEK®-brand blood glucose meter (Roche Diagnostics, Indianapolis, Ind.). Fasting glucose levels were measured at 75 minutes prior to the glucose injection (t=−75 min), and the compound injection was performed 60 minutes prior to the glucose injection (t=−60 min). Glucose levels were measured immediately prior to the glucose injection (t=0 min) to assess any changes in the baseline glucose caused by peptide administration. Blood glucose levels were monitored at 30, 60, 90, and 120 minutes after injection of glucose.
Five hours after peptide injection, the mice received a second injection of 1.5 g/kg glucose. Blood glucose was monitored at 30 min after this second glucose injection. Mice were sacrificed by CO2 inhalation at the conclusion of the GTT.

Compound: CC[C@H](C)[C@H](NC(=O)[C@H](Cc1ccccc1)NC(=O)[C@H](CCC(=O)O)NC(=O)[C@H](CCCCN)NC(=O)[C@H](C)NC(=O)[C@H](C)NC(=O)[C@H](CCC(N)=O)NC(=O)CNC(=O)[C@H](CCC(=O)O)NC(=O)[C@H](CC(C)C)NC(=O)[C@H](Cc1ccc(O)cc1)NC(=O)[C@H](CO)NC(=O)[C@H](CO)NC(=O)[C@@H](NC(=O)[C@H](CC(=O)O)NC(=O)[C@H](CO)NC(=O)[C@@H](NC(=O)[C@H](Cc1ccccc1)NC(=O)[C@@H](NC(=O)CNC(=O)[C@H](CCC(=O)O)NC(=O)[C@H](C)NC(=O)[C@@H](N)Cc1c[nH]cn1)[C@@H](C)O)[C@@H](C)O)C(C)C)C(=O)N[C@@H](C)C(=O)N[C@@H](Cc1c[nH]c2ccccc12)C(=O)N[C@@H](CC(C)C)C(=O)N[C@H](C(=O)N[C@@H](CCCCN)C(=O)NCC(=O)N[C@@H](CCCNC(=N)N)C(N)=O)C(C)C [GLP-1(7-36)-NH2]
increase in glucose-stimulated insulin secretion (GSIS) (mouse pancreatic islets; freshly isolated mouse islets, 90 nM agonist): ~2 fold

Max Response (% GLP-1 max) (human GLP-1 receptor; HEK293 cells, cAMP production): 88 % GLP-1 max | cAMP production, AVERAGES at M Concentrations −7 (human GLP-1 receptor; peptide concentration −7 (log M)): 88.32 | cAMP production, AVERAGES at M Concentrations −8 (human GLP-1 receptor; peptide concentration −8 (log M)): 63.0221 | cAMP production, AVERAGES at M Concentrations −9 (human GLP-1 receptor; peptide concentration −9 (log M)): 35 | cAMP production, AVERAGES at M Concentrations −10 (human GLP-1 receptor; peptide concentration −10 (log M)): 4.469 | cAMP production, AVERAGES at M Concentrations −11 (human GLP-1 receptor; peptide concentration −11 (log M)): 3.504 | cAMP production, AVERAGES at M Concentrations −12 (human GLP-1 receptor; peptide concentration −12 (log M)): 2.813 | cAMP production, AVERAGES at M Concentrations −13 (human GLP-1 receptor; peptide concentration −13 (log M)): 3.831 | t1/2 with neprilysin relative to native GLP-1 peptide (neprilysin): more than 100 times | cleavage by DPP-4 over seven days (in words) (DPP-4): no cleavage was detected | half-life (chymotrypsin [1]): 12.5 min | remaining at 25 min, 40 μM (chymotrypsin [2]): > 25%
Compound: CC[C@H](C)[C@H](NC(=O)[C@H](Cc1ccccc1)NC(=O)[C@H](CCC(=O)O)NC(=O)[C@H]1CCC[C@@H]1NC(=O)[C@H](C)NC(=O)[C@H](C)NC(=O)[C@H](CCC(N)=O)NC(=O)[C@H]1CCC[C@@H]1NC(=O)[C@H](CCC(=O)O)NC(=O)[C@H](CC(C)C)NC(=O)[C@H](Cc1ccc(O)cc1)NC(=O)[C@H]1CCC[C@@H]1NC(=O)[C@H](CO)NC(=O)C(C)(C)NC(=O)[C@H](CC(=O)O)NC(=O)[C@H](CO)NC(=O)[C@@H](NC(=O)[C@H](Cc1ccccc1)NC(=O)[C@@H](NC(=O)CNC(=O)[C@H](CCC(=O)O)NC(=O)C(C)(C)NC(=O)[C@@H](N)Cc1c[nH]cn1)[C@@H](C)O)[C@@H](C)O)C(=O)N[C@H]1CCC[C@@H]1C(=O)N[C@@H](Cc1c[nH]c2ccccc12)C(=O)N[C@@H](CC(C)C)C(=O)N[C@H](C(=O)N[C@H]1CNC[C@@H]1C(=O)NCC(=O)N[C@@H](CCCNC(=N)N)C(=O)NCC(N)=O)C(C)C [SEQ. ID. NO: 7]

number of major cleavage sites, neprilysin (neprilysin; MALDI-TOF-MS): six | half-life (neprilysin; neprilysin in TBS, pH 8, 40 μM peptide, TBS pH 8.0, room temperature, read-out: half-life (t1/2) with neprilysin (converted)): 498 min | half-life (chymotrypsin [1]; chymotrypsin in TBS): 2.25 min
Compound: CC[C@H](C)[C@H](NC(=O)[C@H](Cc1ccccc1)NC(=O)[C@H](CCC(=O)O)NC(=O)C(C)(C)NC(=O)[C@H](C)NC(=O)[C@H](C)NC(=O)[C@H](CCC(N)=O)NC(=O)C(C)(C)NC(=O)[C@H](CCC(=O)O)NC(=O)[C@H](CC(C)C)NC(=O)[C@H](Cc1ccc(O)cc1)NC(=O)C(C)(C)NC(=O)[C@H](CO)NC(=O)C(C)(C)NC(=O)[C@H](CC(=O)O)NC(=O)[C@H](CO)NC(=O)[C@@H](NC(=O)[C@H](Cc1ccccc1)NC(=O)[C@@H](NC(=O)CNC(=O)[C@H](CCC(=O)O)NC(=O)C(C)(C)NC(=O)[C@@H](N)Cc1c[nH]cn1)[C@@H](C)O)[C@@H](C)O)C(=O)NC(C)(C)C(=O)N[C@@H](Cc1c[nH]c2ccccc12)C(=O)N[C@@H](CC(C)C)C(=O)N[C@H](C(=O)NC(C)(C)C(=O)NCC(=O)N[C@@H](CCCNC(=N)N)C(=O)NCC(N)=O)C(C)C [SEQ. ID. NO: 9]

Compound: Exendin-4: GLP-1R agonist found in the saliva of the Gila monster (39 residues), active agent in exenatide; purchased from Anaspec
rise of glucose relative to vehicle-treated mice during the GTT (in words) (C57BL/6J mice; 1 mg/kg): dramatic suppression | Average Blood Glucose Level (C57BL/6J mice; 1 mg/kg i.p., time 0.0 min): 89.5 mg/dL | Average Blood Glucose Level (C57BL/6J mice; 1 mg/kg i.p., time 30.0 min): 123.5 mg/dL | Average Blood Glucose Level (C57BL/6J mice; 1 mg/kg i.p., time 60.0 min): 87.0 mg/dL | Average Blood Glucose Level (C57BL/6J mice; 1 mg/kg i.p., time 90.0 min): 67.5 mg/dL | Average Blood Glucose Level (C57BL/6J mice; 1 mg/kg i.p., time 120.0 min): 70.0 mg/dL | Average Blood Glucose Level (C57BL/6J mice; 1 mg/kg i.p., time −60.0 min (peptide injection)): 118.0 mg/dL | Average Blood Glucose Level at 30 min (column head AUC) (C57BL/6J mice; 1 mg/kg i.p., Table 7, 30 min after second glucose injection given five hours after peptide): 118.8 | glucose-lowering effect in GTT repeated 5 hours after agonist administration (in words) (C57BL/6J mice; 1 mg/kg, 30 min after the second glucose challenge): maintained

Compound: GLP-1: glucagon-like peptide-1; used loosely for GLP-1(7-36)-NH2 (Tables 3, 5) or GLP-1(7-37)-NH2
Insulin Content average (ng/3 islets) (mouse pancreatic islets; high glucose + 3 nM peptide): 522.1 ng/3 islets | Insulin Content average (ng/3 islets) (mouse pancreatic islets; high glucose + 10 nM peptide): 496.4 ng/3 islets | Insulin Content average (ng/3 islets) (mouse pancreatic islets; high glucose + 30 nM peptide): 458.6 ng/3 islets | Insulin Content average (ng/3 islets) (mouse pancreatic islets; high glucose + 90 nM peptide): 463.1 ng/3 islets
